Test results as given in ChEMBL document CHEMBL1141040, “Isolation, structure elucidation, preparation, and biological properties of neolambertellin” (Bioorg Med Chem Lett, 2005).
Converted amounts (≈) assume the structure as drawn.

Test system: Bipolaris oryzae
Test: Inhibitory concentration against hyphal germination of Cochlibolus miyabeanus
Assay type: functional, organism-based

## Cc1cc2cc(O)c3c(O)cccc3c2oc1=O
  IC50: 100 µg/mL (≈ 413 µM)
